Assay results published in patent publication US10677783B2, “Method for evaluating effect of cytokine on metabolic activity of cytochrome P450, and drug screening method” (Corning Incorporated, priority 2012, dated 2020).

Tested on: CYP3A4
Experiment: CYP3A4 mRNA expression by RT-qPCR in spheroid-shaped FLC-4 cells (example, MICRO-SPACE)
Assay type: cell-based, human
Description: A plurality of culture chambers 10a are formed on the bottom culture surface of each well 21a. Each culture chamber 10a includes culture rooms 11a each having the equivalent diameter D of 200 μm and the height H of 100 μm. The width W of each wall 12a is 10 μm.
As cells to be cultured, FLC-4 cells which are established hepatocyte cell lines […] were used.
As a culture medium, a DMEM/F 12 culture medium containing 10% fetal bovine serum (FBS) was used. A cell suspension was adjusted at a cell seeding density of 16×10^5 cells/mL.
The cells were cultured in a CO2 incubator for 10 to 11 days. The culture medium was replaced once every three days.
The total amount of old culture medium was removed from each well by using a pipette (culture medium removing process).
A test solution or a control solution was added to each well (test solution addition process).
The cells were incubated in a CO2 incubator for eight hours, 24 hours, or 48 hours at 37° C. (contact process).
The test solution was obtained in such a manner that the cytokine was dissolved at each concentration shown in Table 1 in a DMEM/F12 solution (DMEM/E12 FBS(−)) containing no serum.
In an RNA extraction, one sample corresponding to two wells 21a of the culture plate 1a was extracted according to the protocol of NucleoSpin® RNAII (Macherey-Nagel). Only the portion to be subjected to Dnase treatment was modified, and DNaseI recombinant, RNase-free (Roche, Branchburg, N.J., USA) was used. The total RNA underwent reverse transcription reaction using High-Capacity cDNA Reverse Transcription Kits (Applied. Biosystems, Foster City, Calif., USA) and an attached random hexamer primer, and the first strand cDNA was synthesized.
The analysis was made using a total amount of 20 μL of reaction liquid containing 9.6 μL of EagleTaq Master Mix with ROX (Roche, Branchburg, N.J., USA), 0.96 μL of 20× Assays-on-Demand™ Gene Expression Assay Mix (Applied Biosystems), 7.1 μL of sterilized MiliQ water, and 1.8 μL of cDNA diluted by a factor of 5, and the reaction liquid was measured by Real-time PCR.

value of the metabolic function of CYP3A4 (mRNA expression level), third test solution versus second test solution (10 ng/mL EGF + 5 μM Gefitinib vs 10 ng/mL EGF alone, FIG. 20) | Compound | determination of the drug's effect on the drug-metabolizing function of the cytochrome P450 (10 ng/mL EGF + 5 μM Gefitinib, first to third test solutions compared) | gene expression level of CYP3A4 versus contact time (spheroid-shaped established hepatocyte cell line, contact for 0, four and eight hours, FIG. 9)
three times higher | COc1cc2ncnc(Nc3ccc(F)c(Cl)c3)c2cc1OCCCN1CCOCC1 [Gefitinib, reference compound] | restores the drug-metabolizing function of the cytochrome P450 | –
– | interleukin-1β | – | decreases over time
